Source: PMC8512562, “Semisynthetic Derivatives of Selected Amaryllidaceae Alkaloids as a New Class of Antimycobacterial Agents” (Molecules, 2021)
Converted amounts (≈) assume the structure as drawn. Like-named read-outs stand apart in the source and are kept apart here.

Tests used:
[1] = test system: Mycobacterium aurum DSM 43999 (ATCC 23366); test: Antimycobacterial screening (microdilution broth, resazurin) against M. aurum; format: cell-based; details: for MIC: Mycolicibacterium aurum, read-out: MIC M. aurum; for MIC values for standards, range, M. aurum: range of MIC of the standards in the assay
[2] = test system: Mycobacterium tuberculosis H37Ra; test: Antimycobacterial screening (microdilution broth, resazurin) against M. tuberculosis H37Ra; format: cell-based; details: for MIC: Mycobacterium tuberculosis; for MIC values for standards, range, M. tuberculosis: range of MIC of the standards in the assay
[3] = test system: Mycobacterium smegmatis DSM 43465 (ATCC 607); test: Antimycobacterial screening (microdilution broth, resazurin) against M. smegmatis; format: cell-based; details: for MIC: Mycolicibacterium smegmatis, read-out: MIC M. smegmatis; for MIC values for standards, range, M. smegmatis: range of MIC of the standards in the assay
HepG2 cells = test: cells; format: cell-based, Human; details: for IC50: Homo sapiens, HepG2, MTT, 24 h incubation
[4] = test system: M. tuberculosis H37Ra, M. aurum and M. smegmatis; test: Antimycobacterial screening, MICs stated over all studied strains; format: cell-based, Mycobacterium; details: range over M. tuberculosis H37Ra, M. aurum, M. smegmatis; read-out: MICs against all studied strains
[5] = H37RA, read-out: MIC Mtb H37Ra (µM)
[6] = M. tuberculosis H37Ra, resazurin added after 120 h, read-out: MIC Mtb H37Ra
[7] = H37RA, 120 h, read-out: MIC Mtb H37Ra

SMILES | MIC ([1]; 72 h) [µg/mL] | MIC [2, 5] [µM] | MIC [2, 6] [µg/mL] | MIC ([3]; resazurin added after 48 h) [µg/mL] | MIC ([3]; 48 h) [µg/mL] | SI (selectivity index) (HepG2 cells) | IC50 (HepG2 cells) [µM] | MIC [4] [µg/mL] | MIC [2, 7] [µg/mL] | MIC ([1]; resazurin added after 72 h) [µg/mL] | MIC values for standards, range, M. aurum [1] [µg/mL] | MIC values for standards, range, M. tuberculosis [2] [µg/mL] | MIC values for standards, range, M. smegmatis [3] [µg/mL]
COc1ccc2c3c1O[C@H]1C[C@@H](OC(=O)c4ccccc4)C=C[C@@]31CCN(C)C2 [1a, 6-O-benzoylgalanthamine] | 31.2 (≈ 79.8 µM) | 79.8 | 31.2 | ≥ 500 |  |  |  |  |  |  |  |  | 
COc1ccc2c3c1O[C@H]1C[C@@H](OC(=O)c4ccccc4C)C=C[C@@]31CCN(C)C2 [1b, 6-O-(2-methylbenzoyl)galanthamine] | 31.2 (≈ 77.1 µM) | 35.4 | 15.6 |  | 31.2 (≈ 77.1 µM) |  |  |  |  |  |  |  | 
COc1ccc2c3c1O[C@H]1C[C@@H](OC(=O)c4cccc(C)c4)C=C[C@@]31CCN(C)C2 [1c, 6-O-(3-methylbenzoyl)galanthamine] | 15.6 (≈ 38.5 µM) | 35.4 | 15.6 |  | 31.2 (≈ 77.1 µM) |  |  |  |  |  |  |  | 
COc1ccc2c3c1O[C@H]1C[C@@H](OC(=O)c4ccc(C)cc4)C=C[C@@]31CCN(C)C2 [1d, 6-O-(4-methylbenzoyl)galanthamine] | 15.6 (≈ 38.5 µM) | 35.4 | 15.6 |  | 31.2 (≈ 77.1 µM) |  |  |  |  |  |  |  | 
COc1ccc2c3c1O[C@H]1C[C@@H](OC(=O)c4cccc(C)c4C)C=C[C@@]31CCN(C)C2 [1e, 6-O-(2,3-dimethylbenzoyl)galanthamine] | 15.6 (≈ 37.2 µM) | 17.1 | 7.81 |  | 31.2 (≈ 74.5 µM) | 1.05 | 17.9 ± 2.6 |  |  |  |  |  | 
COc1ccc2c3c1O[C@H]1C[C@@H](OC(=O)c4cc(C)cc(C)c4)C=C[C@@]31CCN(C)C2 [1f, 6-O-(3,5-dimethylbenzoyl)galanthamine] | 7.81 (≈ 18.6 µM) | 17.1 | 7.81 |  | 7.81 (≈ 18.6 µM) | 1.03 | 17.6 ± 4.7 |  |  |  |  |  | 
COc1ccc2c3c1O[C@H]1C[C@@H](OC(=O)c4c(C)cc(C)cc4C)C=C[C@@]31CCN(C)C2 [1g, 6-O-(2,4,6-trimethylbenzoyl)galanthamine] | 15.6 (≈ 36 µM) | 18 | 7.81 |  | 31.2 (≈ 72.1 µM) | 0.77 | 13.9 ± 0.8 |  |  |  |  |  | 
COc1ccc2c3c1O[C@H]1C[C@@H](OC(=O)c4ccc(C(C)(C)C)cc4)C=C[C@@]31CCN(C)C2 [1h, 6-O-(4-tert-butylbenzoyl)galanthamine] | 7.81 (≈ 17.4 µM) | 6.9 | 3.12 |  | 7.81 (≈ 17.4 µM) | 2.43 | 16.8 ± 4.2 | 3.12 to 7.81 (≈ 6.98 to 17.4 µM) |  |  |  |  | 
COc1ccccc1C(=O)O[C@H]1C=C[C@@]23CCN(C)Cc4ccc(OC)c(c42)O[C@H]3C1 [1j, 6-O-(2-methoxybenzoyl)galanthamine] | 125 (≈ 297 µM) | 148 | 62.5 |  | 250 (≈ 593 µM) |  |  |  |  |  |  |  | 
COc1cccc(C(=O)O[C@H]2C=C[C@@]34CCN(C)Cc5ccc(OC)c(c53)O[C@H]4C2)c1 [1k, 6-O-(3-methoxybenzoyl)galanthamine] | 31.2 (≈ 74.1 µM) | 68.3 | 31.2 |  | 62.5 (≈ 148 µM) |  |  |  |  |  |  |  | 
COc1ccc(C(=O)O[C@H]2C=C[C@@]34CCN(C)Cc5ccc(OC)c(c53)O[C@H]4C2)cc1 [1l, 6-O-(4-methoxybenzoyl)galanthamine] | 31.2 (≈ 74.1 µM) | 68.3 | 31.2 |  | 62.5 (≈ 148 µM) |  |  |  |  |  |  |  | 
COc1ccc(C(=O)O[C@H]2C=C[C@@]34CCN(C)Cc5ccc(OC)c(c53)O[C@H]4C2)cc1OC [1m, 6-O-(3,4-dimethoxybenzoyl)galanthamine] | 125 (≈ 277 µM) | 128 | 62.5 |  | 250 (≈ 554 µM) |  |  |  |  |  |  |  | 
COc1cc(OC)cc(C(=O)O[C@H]2C=C[C@@]34CCN(C)Cc5ccc(OC)c(c53)O[C@H]4C2)c1 [1n, 6-O-(3,5-dimethoxybenzoyl)galanthamine] | 31.2 (≈ 69.2 µM) | 34.6 | 15.6 |  | 31.2 (≈ 69.2 µM) |  |  |  |  |  |  |  | 
COc1cc(C(=O)O[C@H]2C=C[C@@]34CCN(C)Cc5ccc(OC)c(c53)O[C@H]4C2)cc(OC)c1OC [1o, 6-O-(3,4,5-trimethoxybenzoyl)galanthamine] | 125 (≈ 260 µM) | 121 | 62.5 |  | 250 (≈ 519 µM) |  |  |  |  |  |  |  | 
COc1ccc2c3c1O[C@H]1C[C@@H](OC(=O)c4ccco4)C=C[C@@]31CCN(C)C2 [1s, 6-O-(2-furoyl)galanthamine] | 250 (≈ 655 µM) | 150 | 62.5 |  | ≥ 500 |  |  |  |  |  |  |  | 
COC1CC2C(=CC1O)C1CN2Cc2cc3c(cc21)OCO3 (centres unmarked) [3-O-methylpancracine (3), 3-O-methylpancracine] | ≥ 500 | ≥ 1660 | ≥ 500 |  | ≥ 500 |  |  |  |  |  |  |  | 
COC1CC2C(=CC1OC(=O)c1cc(C)cc(C)c1)C1CN2Cc2cc3c(cc21)OCO3 (centres unmarked) [3a, 2-O-(3,5-dimethylbenzoyl)-3-O-methylpancracine] | 7.81 (≈ 18 µM) | 16.6 | 7.81 |  | 15.6 (≈ 36 µM) | 2.45 | 40.6 ± 7.6 |  |  |  |  |  | 

SMILES | MIC ([1]; 72 h) [µg/mL] | MIC [2, 5] [µM] | MIC [2, 6] [µg/mL] | MIC ([3]; resazurin added after 48 h) [µg/mL] | MIC ([3]; 48 h) [µg/mL] | SI (selectivity index) (HepG2 cells) | IC50 (HepG2 cells) [µM] | MIC [4] [µg/mL] | MIC [2, 7] [µg/mL] | MIC ([1]; resazurin added after 72 h) [µg/mL] | MIC values for standards, range, M. aurum [1] [µg/mL] | MIC values for standards, range, M. tuberculosis [2] [µg/mL] | MIC values for standards, range, M. smegmatis [3] [µg/mL]
COC1CC2C(=CC1OC(=O)c1c(C)cc(C)cc1C)C1CN2Cc2cc3c(cc21)OCO3 (centres unmarked) [3b, 2-O-(2,4,6-trimethylbenzoyl)-3-O-methylpancracine] | 7.81 (≈ 17.5 µM) | 16.1 | 7.81 |  | 15.6 (≈ 34.9 µM) | 1.94 | 31.2 ± 5.4 |  |  |  |  |  | 
COC1CC2C(=CC1OC(=O)c1ccc(C(C)(C)C)cc1)C1CN2Cc2cc3c(cc21)OCO3 (centres unmarked) [3c, 2-O-(4-tert-butylbenzoyl)-3-O-methylpancracine] | 7.81 (≈ 16.9 µM) | 7.9 | 3.91 |  | 7.81 (≈ 16.9 µM) | 3.08 | 24.3 ± 2.4 |  |  |  |  |  | 
CCCCc1ccc(C(=O)OC2C=C3C4CN(Cc5cc6c(cc54)OCO6)C3CC2OC)cc1 (centres unmarked) [3d, 2-O-(4-butylbenzoyl)-3-O-methylpancracine] | 7.81 (≈ 16.9 µM) | 7.9 | 3.91 |  | 7.81 (≈ 16.9 µM) | 2.59 | 20.5 ± 0.7 |  |  |  |  |  | 
CCOc1cc(OCC)cc(C(=O)OC2C=C3C4CN(Cc5cc6c(cc54)OCO6)C3CC2OC)c1 (centres unmarked) [3e, 2-O-(3,5-diethoxybenzoyl)-3-O-methylpancracine] | 7.81 (≈ 15.8 µM) | 7.8 |  |  | 15.6 (≈ 31.7 µM) |  | 24.9 ± 1.7 |  | 3.91 |  |  |  | 
COC1CC2C(=CC1OC(=O)c1ccc3ccccc3c1)C1CN2Cc2cc3c(cc21)OCO3 (centres unmarked) [3g, 2-O-(2-naphthoyl)-3-O-methylpancracine] | 15.6 (≈ 34.3 µM) | 31.8 | 15.6 |  | 15.6 (≈ 34.3 µM) |  |  |  |  |  |  |  | 
O=C(O)c1cn(C2CC2)c2cc(N3CCNCC3)c(F)cc2c1=O [ciprofloxacin, reference compound] |  | 0.75 | 0.25 | 0.125 (≈ 0.377 µM) |  |  |  |  |  | 0.0156 (≈ 0.0472 µM) | 0.0078 to 0.0156 | 0.125 to 0.25 | 0.0625 to 0.125
COc1ccc2c3c1O[C@H]1C[C@@H](O)C=C[C@@]31CCN(C)C2 [galanthamine (1), galanthamine, reference compound] | ≥ 500 | ≥ 1740 | ≥ 500 |  | ≥ 500 |  |  |  |  |  |  |  | 
COc1cc2c(cc1OC)[C@@H]1[C@H](O)[C@@H](OC)C=C3CCN(C2)[C@H]31 [galanthine (6), galanthine] | 250 (≈ 788 µM) | 788 | 250 |  | ≥ 500 |  |  |  |  |  |  |  | 
COC1C=CC23c4cc5c(cc4CN(CC2O)C3C1)OCO5 (centres unmarked) [haemanthamine (2), haemanthamine] | ≥ 500 | ≥ 1660 | ≥ 500 |  | ≥ 500 |  |  |  |  |  |  |  | 
NNC(=O)c1ccncc1 [isoniazid, reference compound] | 3.91 (≈ 28.5 µM) | 1.82 |  | 31.2 (≈ 228 µM) |  |  |  |  | 0.25 |  | 1.95 to 3.91 | 0.125 to 0.25 | 7.81 to 15.625
COc1cc2c(cc1OC)[C@@H](O)O[C@@H]1CC=C3CCN(C)[C@H]3[C@H]21 [lycorenine (9), lycorenine] | ≥ 125 | ≥ 394 | ≥ 125 |  | ≥ 125 |  |  |  |  |  |  |  | 
O[C@H]1[C@H]2c3cc4c(cc3CN3CCC(=C[C@@H]1O)[C@H]23)OCO4 [lycorine (7), lycorine] | ≥ 500 | ≥ 1740 | ≥ 500 |  | ≥ 500 |  |  |  |  |  |  |  | 
COc1cc2c(cc1OC)[C@@]13C=C[C@@H](O)C[C@@H]1N(CC3)C2 [maritidine (5), maritidine] | ≥ 500 | ≥ 1740 | ≥ 500 |  | ≥ 500 |  |  |  |  |  |  |  | 
CO[C@H]1C=C2[C@H]3C[N@@](Cc4cc5c(cc43)OCO5)[C@H]2C[C@@H]1O [montanine (8), montanine] | ≥ 500 | ≥ 1660 | ≥ 500 |  | ≥ 500 |  |  |  |  |  |  |  | 
CO[C@H]1/C=C/O[C@@]2(C)Oc3c(C)c(O)c4c(O)c(c(/C=N/N5CCN(C)CC5)c(O)c4c3C2=O)NC(=O)/C(C)=C\C=C\[C@H](C)[C@H](O)[C@@H](C)[C@@H](O)[C@@H](C)[C@H](OC(C)=O)[C@@H]1C [rifampicin, reference compound] |  | 0.0075 |  | 6.25 (≈ 7.59 µM) |  |  |  |  | 0.00625 | 0.39 (≈ 0.474 µM) | 0.39 to 0.78 | 0.0039 to 0.0078 | 
O[C@@H]1C=C[C@]23CCN(Cc4cc5c(cc42)OCO5)[C@H]3C1 [vittatine (4), vittatine] | 250 (≈ 921 µM) | ≥ 1840 | ≥ 500 |  | ≥ 500 |  |  |  |  |  |  |  | 
